The record followed here is patent US9422239B1, “Dual PPAR-δ PPAR-γ agonists” (Auburn University, priority 2013, dated 2016).

The subject of one data set is 3T3-L1 adipocytes. Briefly: Lipid accumulation by oil red-o staining. It counts as cell-based. The following applies: 6 days, oil red-o stain. The protocol: 3T3L1 adipocytes were cultured and treated with the novel compounds for a period of 6 days. Lipid accumulation was determined by oil red-o staining, and measured the absorbance spectrophotometrically at a wavelength of 510 nm and standardized to total protein concentrations. Data from lipid accumulation studies were compared to cells treated with rosiglitazone (a full PPARγ agonist).

Data set [1] in a line: Accumulation in the brain after repeated dosing. It counts as in vivo, mice. Conditions: 10 mg/kg, after 3 weeks. The protocol: Thus, a 10 mg/kg dose for 4 weeks can be administered.
Data set [2] can be described thus: Biodistribution by LC-Mass Spectral analysis. Conditions: mice; for concentration at 4 h: mouse, po, 3 mg/kg, 3 mg/kg (table).
Data set [3] deals with BDNF promoter in primary hippocampal neuronal cells. Description: BDNF promoter luciferase activity. Conditions: dose response curve. Format: cell-based, rat. The text has this: Primary hippocampal cells: Rat primary neuron cultures for luciferase assays as well as westerns and all other cell cultured assays are described herein. Rat primary neuron cultures can be generated from embryonic day 18-21 rat embryo (male and female) brains (Sprague Dawley) following known protocols. Briefly, the cortices, together with hippocampi, can be dissected and cells can be dissociated with 0.25% trypsin (Invitrogen), treated with 0.05% DNase I (Roche). To remove alternative cells and RBC's, tissue slurry can be allowed to sediment by gravity for 30 minutes at room temperature. Lower cellular suspension can then be plated on poly-D-lysine-coated dishes in Neurobasal A medium (Invitrogen) with B27 supplement (Invitrogen), penicillin (PAA Laboratories, 100 U/ml), streptomycin (PAA Laboratories, 0.1 mg/ml), and 1 mM L-glutamine (PAA Laboratories). Mitotic inhibitor 5-fluoro-2′-deoxyuridine (Sigma) can be added to the medium (10 μM) at 2 days in vitro (DIV) to remove fibroblast and astrocyte contamination. To test isolation purity for neurons, markers for neurons (MAP2) specificity can be measured by gene and western analysis.
Nine distinct transcriptional initiation sites exist: eight in the 5′ noncoding exon and one preceding coding exon IX, indicating nine different promoters control BDNF transcription sites. […]

A short description of data set [4]: Heart size (heart weight to body weight ratio). Conditions: 10 mg/kg oral daily for 1 month, wild type and db/db mice. Format: in vivo. The protocol: Diabetic db/db mice were fed a normal rodent chow diet. […] Mice were then weighed and their hearts were extracted and weighed. The heart weight of the mice compared to the body weight of the mice was then calculated based upon heart weight to body weight ratio.

Another data set concerns the target T1, PPARγ (AP2-PPRE) (Homo sapiens, UniProt P37231).
T1 construct: expressed in transfected cells; host or cells: HEK-293
T1 sequence (P37231 1-505): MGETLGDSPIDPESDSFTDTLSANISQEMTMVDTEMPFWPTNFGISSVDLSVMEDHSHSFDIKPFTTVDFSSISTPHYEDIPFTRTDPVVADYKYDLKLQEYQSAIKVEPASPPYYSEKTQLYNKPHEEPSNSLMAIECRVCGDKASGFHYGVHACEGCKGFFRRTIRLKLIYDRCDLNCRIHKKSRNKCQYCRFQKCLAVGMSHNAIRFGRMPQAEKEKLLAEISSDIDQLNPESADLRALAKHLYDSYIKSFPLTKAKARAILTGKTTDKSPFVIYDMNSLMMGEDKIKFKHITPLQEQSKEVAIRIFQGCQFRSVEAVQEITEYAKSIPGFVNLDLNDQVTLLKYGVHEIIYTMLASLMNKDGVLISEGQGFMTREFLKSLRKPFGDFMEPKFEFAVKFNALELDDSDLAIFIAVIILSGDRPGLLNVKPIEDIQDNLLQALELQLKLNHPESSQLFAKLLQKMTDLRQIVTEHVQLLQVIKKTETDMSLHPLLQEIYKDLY
T1 sequence (P19793 1-462 partner): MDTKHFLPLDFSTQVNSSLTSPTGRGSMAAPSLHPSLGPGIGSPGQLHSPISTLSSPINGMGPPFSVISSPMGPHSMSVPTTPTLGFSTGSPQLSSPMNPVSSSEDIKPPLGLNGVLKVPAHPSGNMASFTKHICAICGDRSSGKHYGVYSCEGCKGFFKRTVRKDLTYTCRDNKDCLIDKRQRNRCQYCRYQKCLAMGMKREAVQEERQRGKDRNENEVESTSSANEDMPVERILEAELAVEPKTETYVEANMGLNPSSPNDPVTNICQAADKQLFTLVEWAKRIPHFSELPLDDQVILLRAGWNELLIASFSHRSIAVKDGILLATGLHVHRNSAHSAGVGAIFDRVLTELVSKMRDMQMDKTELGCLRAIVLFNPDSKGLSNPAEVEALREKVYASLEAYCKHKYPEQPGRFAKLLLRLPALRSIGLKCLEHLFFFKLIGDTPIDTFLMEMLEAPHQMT
Description: AP2-PPRE luciferase assay in HEK-293 cells. Format: cell-based. The text has this: To validate the specificity of the novel compounds towards activation of PPARγ/δ targets, we tested the compounds capacity to bind to select PPARγ/δ Peroxisome Proliferator Response Elements (PPRE). The PPRE are unique sites located in the promoter region where PPARs bind and transcriptionally activate the target genes. AP2-PPRE is the PPARγ target involved in adipocyte growth and differentiation. PDK4-PPRE is a PPARδ target involved in regulating energy metabolism in the cell. These PPREs were inserted into a PGL3 luciferase vectors containing CMV promoters (ADDGENE) using PCR. These vectors were co-transfected with RXR, PPARγ/PPARδ and p-galactosidase vectors into HEK-293 cells using Lipofectamine 2000 (Invitrogen). Relative light units (RLU) were measured using a Glomax Luminometer (Promega). Data were standardized to p-galactosidase activity using ONPG (Promega).

The next data set has as its system PPARγ/δ targets. Briefly: mRNA analyses of PPARγ/δ targets in 3T3-L1 adipocytes. It counts as cell-based. Conditions: 10 μM. The text has this: Compound 9 increased the gene expression of PPARγ targets MCAD, HSL, ATGL and adiponectin.

Molecules are shown by their SMILES. “Also recorded” adds a separate entry of the source.

As to `Cc1ccc(CNCCCN(Cc2ccc(C(=O)O)cc2)Cc2cc(C(F)(F)F)cc(C(F)(F)F)c2)cc1` [Compound 9], the Lipid accumulation entry is “less lipid accumulation” in the data set with 3T3-L1 adipocytes and “negligible effects” with 3T3-L1 adipocytes (listed as compound 9). Moreover, the “Accumulation in the brain” value in data set [1] is reported as “accumulate in the brain”. The “Detection in the brain (crosses the blood brain barrier)” value in data set [2] (oral, 4 hours) is recorded as “detected”. Moreover, the concentration at 4 h in data set [2] (adipose, Concentration) is 40.4 ng/mL; in data set [2] (adipose, Tissue Concentration) it was 15.2 ng/mL; in data set [2] (adipose, Tissue Distribution), 3.47 ng/mL; in data set [2] (blood, Concentration), 144 ng/mL; in data set [2] (brain, Concentration), 38.7 ng/mL; in data set [2] (brain, Tissue Concentration), 17.2 ng/mL. The concentration at 4 h in data set [2] (brain, Tissue Distribution) was 2.96 ng/mL; in data set [2] (heart, Concentration) it was 22.1 ng/mL; in data set [2] (heart, Tissue Concentration) it was 3.19 ng/mL; in data set [2] (heart, Tissue Distribution) it was 1.35 ng/mL; in data set [2] (liver, Concentration), 200 ng/mL; in data set [2] (liver, Tissue Concentration), 24.8 ng/mL. Further, the concentration at 4 h in data set [2] (liver, Tissue Distribution) was found to be 11.9 ng/mL. Also, the “BDNF promoter activity (luciferase)” value in data set [3] is given as “inducing”. Also, in data set [4], the Heart size result is given as “lacks increase in heart size; also recorded: decreased heart size”. In addition, the “Binding affinity for the AP2-PPRE” value at PPARγ (AP2-PPRE) (luciferase assay, HEK-293 cells, 10 μM) is recorded as “less binding affinity”. Besides, the “Activation of the AP2-PPRE” value on PPARγ (AP2-PPRE) (transcriptional assays) was “minimally activates”. The “Expression of genes associated with lipid accumulation and synthesis (FATP, CD36, DGAT)” value in the data set on PPARγ/δ targets was “marginally induced”. Besides, the “Gene expression of PDK4” value in the data set with PPARγ/δ targets is “increased”. In addition, in the data set with PPARγ/δ targets, the “Gene expression of PPARγ targets MCAD, HSL, ATGL and adiponectin” value is given as “increased”.
